# In patent US20220380317A1, “COMPOUNDS HAVING ANTIMALARIAL ACTIVITY” (NANYANG TECHNOLOGICAL UNIVERSITY, priority 2019, published 2022):
# Where two headings read alike, the source gives them in different places.
# How the values were obtained:
# P. falciparum = test: in vitro P. falciparum growth inhibition / dose response assay (Hoechst 33342 FACS read out); format: cell-based, Plasmodium falciparum; settings: for IC50: in vitro, FIG. 7B, read-out: affinity (IC50 values, in vitro anti-parasitic activity)
# Description: For the in vitro P. falciparum culture, P. falciparum 3D7, Dd2, K1, T994, W2, and W2mef cell lines were obtained from Malaria Research and Reference Reagent Resource Center (MR4), BEI Resources. Artemisinin-resistant and -sensitive parasite field isolates from Ratanakiri, Cambodia were obtained by request from the Tracking Resistance to Artemisinin Collaboration (TRAC). In vitro parasite culture was performed as described by Maier and Rug (Methods Mol Bio 2013; 923:3-15). Briefly, cultures were maintained with RPMI medium supplemented with Albumax II; […] RPMI-1640 (Gibco, Life Technologies), 2.5 g/L Albumax II (Gibco, Life Technologies), 2.3 g/L Sodium Bicarbonate (Sigma-Aldrich), 50 mg/L Hypoxanthine (Sigma-Aldrich), 10 mg/L Gentamicin Sulphate (Gibco, Life Technologies), in 2-3% haematocrit human RBCs collected via patient donation at National University Hospital, Singapore. Cultures were maintained with a special mixed gas of 3% O2, 5% CO2, balanced with N2 (SOXAL, Air Liquide, Singapore). For cultures grown in plate format, plates were kept in a sealed bag filled with mixed gas. Parasitemia and parasite stages were checked by microscopy of blood smears fixed in Methanol (Merck), stained in Giemsa (Sigma-Aldrich) in 1× Tris-Base, Acetic Acid, EDTA (TAE) buffer (analytical grade, Fischer US).
# Synchronization of ring stage parasites (0-20 hour IDC) was done by incubating packed RBC culture with 5% (w/v) D-Sorbitol (Sigma-Aldrich) at 37° C. for 20 minutes. Cultures were washed with incomplete RPMI (iRPMI), 2,200 rpm, 3 minutes, brake 1 to remove sorbitol and cell debris. Late stage parasites (30-48 hour IDC) were isolated using a 68% Percoll (MP Biomedicals) gradient prepared with 1× Phosphate Buffer Saline (PBS) and iRPMI. Packed parasite cultures were diluted with iRPMI 1:5, then layer carefully atop of the 68% Percoll gradient in a 15 mL Falcon tube. Tubes were spun at 2,200 rpm for 20 minutes, brake 0. […]
# In a mid-throughput compound library screen, compounds were screened for antiparasitic activity by growth rate over a duration of 60 hrs (slightly over one IDC). ˜1% parasitemia of 0-3hpi ring stage culture in 2% haematocrit were treated with 10 μM of library compound (0.1% final DMSO concentration), and seeded into 96well flat bottom plates. […] After 60 hr of treatment (to allow ring stages to develop a more defined morphology), taken for Fluorescent-activated Cell Sorting (FACS) read out.
# Assay read out was done by staining with Hoechst 33342 (Excitation 350 nm, Emission 461 nm; Molecular Probes, Life Technologies), a cell permeable DNA staining dye. […] Cells were read via a High Throughput Sampler (HTS)-coupled FACS machine (BD Biosciences) in the UV laser excitation channel (Excitation 355 nm). […]
# P. berghei [1] = test: in vivo four-day suppression test; set-up: species or system Balb/c mice; settings: for dose required to achieve >95% killing: once daily Days 1 to 4, parasitemia measured on Day 5
# Description: Four-week-old Balb/c mice were challenged with […] P. berghei parasites intravenously on Day 0. […] Parasitemia was measured on Day 5, and the following formula was used to measure in vivo activity;
# [2] = molecular target: T1, Falcilysin (FLN, PlasmoDB geneID: PF3D7_1360800) (Plasmodium falciparum, UniProt Q76NL8); test: cell-free enzymatic inhibition assay with recombinant FLN and fluorescent-quencher peptide substrate; format: biochemical; settings: 1 mM, fluorescence at 490 nm over 7 min
# T1 construct: gift from Zbynek Bozdech, School of Biological Sciences, NTU
# T1 sequence (Q76NL8 whole entry): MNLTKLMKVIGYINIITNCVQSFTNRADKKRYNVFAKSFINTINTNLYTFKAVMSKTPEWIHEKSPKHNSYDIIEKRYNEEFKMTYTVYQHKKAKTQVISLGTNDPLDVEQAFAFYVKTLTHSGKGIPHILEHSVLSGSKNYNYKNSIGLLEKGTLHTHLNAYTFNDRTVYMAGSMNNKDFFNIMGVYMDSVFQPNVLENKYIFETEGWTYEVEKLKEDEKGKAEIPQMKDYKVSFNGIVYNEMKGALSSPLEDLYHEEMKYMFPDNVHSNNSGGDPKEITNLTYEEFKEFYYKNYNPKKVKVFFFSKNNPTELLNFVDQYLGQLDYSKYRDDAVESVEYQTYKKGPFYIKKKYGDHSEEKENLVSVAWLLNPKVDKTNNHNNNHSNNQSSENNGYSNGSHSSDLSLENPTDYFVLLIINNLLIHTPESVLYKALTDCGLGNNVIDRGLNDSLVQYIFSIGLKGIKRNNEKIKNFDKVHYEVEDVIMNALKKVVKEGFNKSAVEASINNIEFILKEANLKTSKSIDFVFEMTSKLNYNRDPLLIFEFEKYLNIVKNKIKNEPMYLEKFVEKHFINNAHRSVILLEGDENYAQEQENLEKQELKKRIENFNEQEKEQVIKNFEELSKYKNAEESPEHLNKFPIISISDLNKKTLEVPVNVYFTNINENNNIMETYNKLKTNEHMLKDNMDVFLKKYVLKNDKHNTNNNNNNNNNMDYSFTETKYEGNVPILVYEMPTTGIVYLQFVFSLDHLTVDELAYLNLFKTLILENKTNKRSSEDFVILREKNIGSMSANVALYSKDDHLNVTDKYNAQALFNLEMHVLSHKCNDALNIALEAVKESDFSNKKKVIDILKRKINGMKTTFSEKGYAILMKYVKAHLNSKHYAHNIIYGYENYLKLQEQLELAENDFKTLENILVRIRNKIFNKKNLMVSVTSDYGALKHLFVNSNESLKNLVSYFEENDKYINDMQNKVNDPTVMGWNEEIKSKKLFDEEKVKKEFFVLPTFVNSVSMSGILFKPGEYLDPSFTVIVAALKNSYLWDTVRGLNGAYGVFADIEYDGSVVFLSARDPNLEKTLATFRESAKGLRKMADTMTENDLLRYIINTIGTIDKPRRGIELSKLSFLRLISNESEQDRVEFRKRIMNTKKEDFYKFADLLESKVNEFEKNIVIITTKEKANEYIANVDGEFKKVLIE
# Description: In order to validate the results obtained from the CETSA screen, a cell-free enzymatic inhibition assay using recombinant-FLN and a fluorescent-quencher tagged 10-peptide substrate of FLN was employed. Recombinant FLN and the Dabcyl-[…] (SEQ ID NO:3)-Edans fluorescent-quencher peptides were a gift from Zbynek Bozdech of School of Biological Sciences, NTU. Briefly, recombinant FLN at a final concentration of 0.3 μg/ml in assay buffer (50 mM Bis-tris, pH 7.2) was prepared. […] Just prior to the read out, recombinant FLN in assay buffer was added. VO was determined by monitoring fluorescence (Aex=340 nm, Aem=490) over 7 min on a Tecan Infinite M200 Pro plate reader. Assays were done with two technical replicates each. Data of three biological replicates were averaged and plot on Microsoft excel to compare the slope of the fluorescence signal.
# [3] = tested on: lung, kidney, and liver epithelial cells; test: toxicity in epithelial cells; format: cell-based; settings: at 1000-folds in excess of the therapeutic dose
# P. berghei [4] = test: in vivo growth suppression test in P. berghei BALB/c mice model; settings: 30 mg/kg intraperitoneally once daily for four days
# Description: In a next step, the compound's in vitro activity was validated in vivo in a P. berghei BALB/c mice model. A growth suppression test was done by intraperitoneally infecting 4-week old Balb/c mice with GFP-expressing parasites, and allowing the parasitemia to rise to 3-4%. Subsequently, different doses of the compound were administered intraperitoneally once daily over four days.
# Tail snips were done once daily to obtain blood samples for the measurement of parasitemia by FACS.
molecule,measurement,setting,value
"1-({3-[(4,5-Diphenyl-1-imidazolinyl)methyl]-5-methoxyphenyl}methyl)-4,5-diphenylimidazoline [SAR 13]",in vitro potency compared with A1,P. falciparum,more potent
same,in vivo activity in 4-day suppressive test,P. berghei [1]; 20 mg/kg,highest activity
same,dose required to achieve >95% killing,P. berghei [1],20 mg/kg
C[C@@H]1C[C@@H]([C@H](O)CC2CC(=O)NC(=O)C2)C(=O)[C@@H](C)C1 [cyclohexamine],proteolytic activity of FLN,[2],No inhibition of proteolytic activity
"C1=NC(c2ccccc2)C(c2ccccc2)N1Cc1cccc(CN2C=NC(c3ccccc3)C2c2ccccc2)c1 (centres unmarked) [A1, 1-({m-[(4,5-Diphenyl-1-imidazolinyl)methyl]phenyl}methyl)-4,5-diphenylimidazoline]",toxicity,[3],Toxicity was not observed
same,IC50,P. falciparum; Plasmodium falciparum,120 nM
same,dose required to achieve >95% killing,P. berghei [1],30 mg/kg
"1-({6-[(4,5-Diphenyl-1-imidazolinyl)methyl]-2-pyridyl}methyl)-4,5-diphenylimidazoline [SAR 14]",in vitro potency compared with A1,P. falciparum,more potent
same,dose required to achieve >95% killing,P. berghei [1],30 mg/kg
"C1=N[C@@H](c2ccccc2)[C@H](c2ccccc2)N1Cc1cccc(CN2C=N[C@@H](c3ccccc3)[C@@H]2c2ccccc2)c1 [imidazole variant, (4S,5S)-1-[(m-{[(4S,5S)-4,5-Diphenyl-1-imidazolyl]methyl}phenyl)methyl]-4,5-diphenylimidazole]",IC50,P. falciparum,4690 nM
C[C@@H]1CC[C@H]2[C@@H](C)C(=O)O[C@@H]3O[C@@]4(C)CC[C@@H]1[C@]32OO4 [artemisinin],reduction of parasitemia,P. berghei [4],unable to further reduce parasitemia beyond day 3
